{"source": "PubChem BioAssay AID256", "about": "(DTP/NCI, 2004)", "system": "CD2F1 mice, L1210 leukemia ip, survival T/C", "test": "NCI In Vivo Anticancer Drug Screen. Data for tumor model L1210 Leukemia (intraperitoneal) in CD2F1 (CDF1) mice", "details": "higher = longer survival", "in_short": "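Activity against a transplanted murine tumor was judged by comparing the compound group with a vehicle group. The outcome in the treated animals was divided by that in the controls.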", "key": {"[1]": {"details": "endpoint: mean survival time, dose: 37.5 mg/kg/injection, schedule: Q01DX009 (ip), vehicle: saline"}}, "note": "“And” between values parts separate entries of the source, which are not always exact repeats. Identical values can stand only once. Inconclusive results and toxic doses are left out.", "data": [{"smiles": "CCC[CH2][Pb]([CH2]CCC)([CH2]CCC)[O]C(C)=O", "values": [{"measurement": "T/C", "setting": "endpoint: mean survival time, dose: 2.5 mg/kg/injection, schedule: Q01DX001 (ip), vehicle: other", "result": "96 % of control"}, {"measurement": "T/C", "setting": "endpoint: mean survival time, dose: 5.0 mg/kg/injection, schedule: Q01DX001 (ip), vehicle: other", "result": "115 % of control"}, {"measurement": "T/C", "setting": "endpoint: mean survival time, dose: 10.0 mg/kg/injection, schedule: Q01DX001 (ip), vehicle: other", "result": "93 % of control"}, {"measurement": "T/C", "setting": "endpoint: mean survival time, dose: 25.0 mg/kg/injection, schedule: Q04DX003 (ip), vehicle: saline with Tween-80", "result": "95 % of control"}, {"measurement": "T/C", "setting": "endpoint: mean survival time, dose: 50.0 mg/kg/injection, schedule: Q04DX003 (ip), vehicle: saline with Tween-80", "result": "87 % of control"}]}, {"smiles": "COc1c(O)cc2c(c1OC)-c1ccc(SC)c(=O)cc1C(NC(C)=O)CC2", "note": "(centres undefined)", "values": [{"measurement": "T/C", "setting": "endpoint: median survival time, dose: 0.06 mg/kg/injection, schedule: Q01DX009 (ip), vehicle: Klucel (hydroxypropylcellulose) (HPC)", "result": "110 % of control"}, {"measurement": "T/C", "setting": "endpoint: median survival time, dose: 0.12 mg/kg/injection, schedule: Q01DX009 (ip), vehicle: Klucel (hydroxypropylcellulose) (HPC)", "result": "110 % of control"}, {"measurement": "T/C", "setting": "endpoint: median survival time, dose: 0.25 mg/kg/injection, schedule: Q01DX009 (ip), vehicle: Klucel (hydroxypropylcellulose) (HPC)", "result": "110 % of control"}, {"measurement": "T/C", "setting": "endpoint: median survival time, dose: 0.31 mg/kg/injection, schedule: Q01DX009 (ip), vehicle: DMSO", "result": "113 % of control"}, {"measurement": "T/C", "setting": "endpoint: median survival time, dose: 0.31 mg/kg/injection, schedule: Q01DX009 (ip), vehicle: Klucel (hydroxypropylcellulose) (HPC)", "result": "118 % of control"}, {"measurement": "T/C", "setting": "endpoint: median survival time, dose: 0.5 mg/kg/injection, schedule: Q01DX009 (ip), vehicle: Klucel (hydroxypropylcellulose) (HPC)", "result": "121 % of control"}, {"measurement": "T/C", "setting": "endpoint: median survival time, dose: 0.63 mg/kg/injection, schedule: Q01DX009 (ip), vehicle: DMSO", "result": "124 % of control"}, {"measurement": "T/C", "setting": "endpoint: median survival time, dose: 1.0 mg/kg/injection, schedule: Q01DX009 (ip), vehicle: Klucel (hydroxypropylcellulose) (HPC)", "result": "105 % of control"}, {"measurement": "T/C", "setting": "endpoint: median survival time, dose: 2.5 mg/kg/injection, schedule: Q01DX009 (oral), vehicle: DMSO", "result": "108 % of control"}, {"measurement": "T/C", "setting": "endpoint: median survival time, dose: 5.0 mg/kg/injection, schedule: Q01DX005 (ip), vehicle: Klucel (hydroxypropylcellulose) (HPC)", "result": "164 % of control"}, {"measurement": "T/C", "setting": "endpoint: median survival time, dose: 5.0 mg/kg/injection, schedule: Q01DX009 (ip), vehicle: DMSO", "result": "172 % of control"}, {"measurement": "T/C", "setting": "endpoint: median survival time, dose: 5.0 mg/kg/injection, schedule: Q01DX009 (oral), vehicle: DMSO", "result": "107 % of control"}, {"measurement": "T/C", "setting": "endpoint: median survival time, dose: 10.0 mg/kg/injection, schedule: Q01DX009 (ip), vehicle: DMSO", "result": "165 % of control"}, {"measurement": "T/C", "setting": "endpoint: median survival time, dose: 10.0 mg/kg/injection, schedule: Q01DX009 (oral), vehicle: DMSO", "result": "116 % of control"}, {"measurement": "T/C", "setting": "endpoint: median survival time, dose: 20.0 mg/kg/injection, schedule: Q01DX005 (ip), vehicle: Klucel (hydroxypropylcellulose) (HPC)", "result": "158 % of control"}, {"measurement": "T/C", "setting": "endpoint: median survival time, dose: 20.0 mg/kg/injection, schedule: Q01DX009 (oral), vehicle: DMSO", "result": "109 % of control"}, {"measurement": "T/C", "setting": "endpoint: median survival time, dose: 40.0 mg/kg/injection, schedule: Q01DX009 (oral), vehicle: DMSO", "result": "107 % of control"}]}, {"smiles": "CO/N=C(/c1ccccc1)c1cccc[n+]1C", "values": [{"measurement": "T/C", "setting": "endpoint: mean survival time, dose: 9.4 mg/kg/injection, schedule: Q01DX009 (ip), vehicle: saline", "result": "107 % of control"}, {"measurement": "T/C", "setting": "endpoint: mean survival time, dose: 18.8 mg/kg/injection, schedule: Q01DX009 (ip), vehicle: saline", "result": "97 % of control"}, {"measurement": "T/C", "setting": "[1]", "result": "98 % of control"}, {"measurement": "T/C", "setting": "endpoint: mean survival time, dose: 75.0 mg/kg/injection, schedule: Q01DX001 (ip), vehicle: saline", "result": "97 % of control"}]}, {"smiles": "[Cl][Pt+2][Cl].[NH-]Cc1ccccc1.[NH-]Cc1ccccc1", "values": [{"measurement": "T/C", "setting": "endpoint: mean survival time, dose: 50.0 mg/kg/injection, schedule: Q01DX001 (ip), vehicle: saline with Tween-80", "result": "110 % of control"}, {"measurement": "T/C", "setting": "endpoint: mean survival time, dose: 100.0 mg/kg/injection, schedule: Q01DX001 (ip), vehicle: saline with Tween-80", "result": "110 % of control"}, {"measurement": "T/C", "setting": "endpoint: mean survival time, dose: 200.0 mg/kg/injection, schedule: Q01DX001 (ip), vehicle: saline with Tween-80", "result": "110 % of control"}]}, {"smiles": "NNC(=O)Nc1cccnc1", "values": [{"measurement": "T/C", "setting": "endpoint: mean survival time, dose: 18.75 mg/kg/injection, schedule: Q01DX009 (ip), vehicle: saline", "result": "106 % of control"}, {"measurement": "T/C", "setting": "[1]", "result": "98 % of control"}, {"measurement": "T/C", "setting": "endpoint: mean survival time, dose: 75.0 mg/kg/injection, schedule: Q01DX009 (ip), vehicle: saline", "result": "101 % of control"}]}, {"smiles": "CNCCN=c1ccc2c3c1c(O)c1c(O)ccc(=O)c1c3[nH]n2CCNCCO", "values": [{"measurement": "T/C", "setting": "endpoint: median survival time, dose: 0.37 mg/kg/injection, schedule: Q01DX009 (ip), vehicle: water", "result": "152 % of control and 207 % of control"}, {"measurement": "T/C", "setting": "endpoint: median survival time, dose: 0.75 mg/kg/injection, schedule: Q01DX009 (ip), vehicle: water", "result": "182 % of control and 195 % of control"}, {"measurement": "T/C", "setting": "endpoint: median survival time, dose: 1.5 mg/kg/injection, schedule: Q01DX009 (ip), vehicle: water", "result": "154 % of control and 195 % of control"}, {"measurement": "T/C", "setting": "endpoint: median survival time, dose: 3.0 mg/kg/injection, schedule: Q01DX009 (ip), vehicle: water", "result": "264 % of control and 280 % of control"}, {"measurement": "T/C", "setting": "endpoint: median survival time, dose: 3.12 mg/kg/injection, schedule: Q01DX009 (ip), vehicle: water", "result": "337 % of control"}, {"measurement": "T/C", "setting": "endpoint: median survival time, dose: 6.0 mg/kg/injection, schedule: Q01DX009 (ip), vehicle: water", "result": "120 % of control and 103 % of control"}, {"measurement": "T/C", "setting": "endpoint: median survival time, dose: 6.25 mg/kg/injection, schedule: Q01DX009 (ip), vehicle: water", "result": "120 % of control"}]}]}
